Read-outs that look alike come from different tables or passages of the source.
Legend:
[1] = Bioavailability in rats after per-oral administration; conditions: rat, in vivo, read-out: Relative bioavailability
[2] = Dissolution study, USP dissolution apparatus II; assay type: physicochemical; conditions: 500 ml 0.2% polysorbate 20 in 0.05 M phosphate buffer pH 6.5, paddle 75 rpm; 8 mg c.c. added except tablets as footnoted
Experimental: The medium used for dissolution studies was 500 ml of 0.2% polysorbate 20 in 0.05 M phosphate buffer pH 6.5 with a paddle speed of 75 rpm (USP dissolution apparatus II). In all dissolution tests, 8 mg of candesartan cilexetil was added to the medium (except where other is stated). After extraction with 60% (v/v) acetonitrile in water (filter pore size 0.45 μm), the amount of candesartan cilexetil was determined by liquid chromatography and UV-detection at 254 nm.

[3] = cited from earlier work

SMILES: CCOc1nc2cccc(C(=O)OC(C)OC(=O)OC3CCCCC3)c2n1Cc1ccc(-c2ccccc2-c2nnn[nH]2)cc1 (stereo not shown) [c.c., candesartan cilexetil]
- bioavailability ([1]; given as a suspension): 19%
- bioavailability ([1]; given in solution): 50%
- Drug dissolved after 5 minutes [2]: 24
- Drug dissolved after 10 minutes [2]: 43
- Drug dissolved after 15 minutes [2]: 54
- Drug dissolved after 20 minutes [2]: 61
- Solubility in water [3]: < 0.05 µg/mL

Source: US20080058399A1, “Pharmaceutical Compositions” (ASTRAZENECA AB, priority 2006, published 2008)
